This note sets out measurements from PubChem BioAssay (NCI).

Some test systems named below: COLO 205 colon; HCT-15 colon; K-562 leukemia; KM12 colon; NCI-H23 lung; RPMI-8226 leukemia; SF-268 CNS; SF-539 CNS; SW-620 colon; UACC-257 melanoma.
What all share (experiment): NCI anticancer screen, dose series, 48 h

“And” between values parts separate entries of the source, which are not always exact repeats. Equal values may be shown once.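 Test compounds were applied to cells in 96-well plates for 48 hours at 5 doses. GI50 marks 50% less growth. TGI is the concentration that stops growth completely.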

Take `COc1ccc(OC)c(/C=C/c2nnc(Nc3ccc(Cl)cc3)o2)c1`: the GI50 in the assay with COLO 205 colon is 16600 nM; in the assay on HCT-15 colon, 34100 nM; in the assay with K-562 leukemia it was 92800 nM; in the assay with KM12 colon, 17.4 µM; in the assay with NCI-H23 lung it was 21700 nM; in the assay with RPMI-8226 leukemia it was > 100000 nM. The GI50 is 7.6 µM with SF-268 CNS, 11800 nM in the assay on SF-539 CNS, 18300 nM in the assay on SW-620 colon and 21.3 µM with UACC-257 melanoma. Further, the TGI with COLO 205 colon, with HCT-15 colon, in the assay with K-562 leukemia, with KM12 colon, with NCI-H23 lung and in the assay with RPMI-8226 leukemia was > 100 µM each time. Also, the TGI was 37.9 µM in the assay with SF-268 CNS, 60.5 µM with SF-539 CNS, > 100 µM in the assay with SW-620 colon and > 100 µM in the assay on UACC-257 melanoma.

As for `N=c1nc(N)c2cc3c(N)nc(=N)c3cc12`, the TGI with COLO 205 colon was > 100 µM; in the assay on HCT-15 colon it was > 100 µM; in the assay on K-562 leukemia, 9.57 µM; in the assay with KM12 colon, > 100 µM; in the assay with NCI-H23 lung it was > 100 µM; with RPMI-8226 leukemia, 23.9 µM. Besides, the TGI worked out at 13.1 µM in the assay with SF-268 CNS, 31.5 µM with SF-539 CNS, 44 µM with SW-620 colon and 28.1 µM in the assay on UACC-257 melanoma.

In the case of `CCN(Cc1ccc(F)cc1)c1ccc(CO)c(Cl)c1`, the GI50 in the assay on COLO 205 colon is 1350 nM; in the assay on HCT-15 colon it was 5150 nM; in the assay on K-562 leukemia, 1570 nM; in the assay with KM12 colon, 16.3 µM; in the assay with NCI-H23 lung, 5790 nM; in the assay on RPMI-8226 leukemia, 3680 nM. Also, the GI50 in the assay on SF-268 CNS was 19.8 µM; in the assay on SF-539 CNS it was 15100 nM; in the assay with SW-620 colon it was 838 nM; with UACC-257 melanoma, 0.0835 µM. The TGI in the assay with COLO 205 colon was 3.77 µM; in the assay with HCT-15 colon it was 50.7 µM; with K-562 leukemia, > 100 µM; in the assay with KM12 colon it was 40.3 µM; in the assay with NCI-H23 lung, 49.1 µM; with RPMI-8226 leukemia, 36.3 µM. Besides, the TGI in the assay on SF-268 CNS is > 55.7 µM; in the assay on SF-539 CNS, 35.1 µM; in the assay with SW-620 colon, > 41 µM; with UACC-257 melanoma, 0.285 µM.

As for `O=S(=O)(/C=C/C=C/S(=O)(=O)c1ccccc1)c1ccccc1`, the GI50 with COLO 205 colon was 1020 nM; in the assay on HCT-15 colon, 189 nM; in the assay on K-562 leukemia, 179 nM; in the assay with KM12 colon it was 11.1 µM; in the assay with NCI-H23 lung, 1060 nM; in the assay with SF-268 CNS it was 2.51 µM. For the same molecule, the GI50 in the assay on SF-539 CNS was 2140 nM; with SW-620 colon, 316 nM; in the assay on UACC-257 melanoma, 2 µM. Further, the TGI with COLO 205 colon was 2.77 µM and 2.71 µM; in the assay with HCT-15 colon, 2.7 µM and 0.795 µM; in the assay on K-562 leukemia, 1.26 µM and 0.516 µM; with KM12 colon, 4.25 µM and 23.5 µM; in the assay with NCI-H23 lung, 3.14 µM and 2.62 µM; in the assay on RPMI-8226 leukemia, 1.66 µM. Besides, the TGI is 8.06 µM and 5.4 µM with SF-268 CNS; 4.43 µM in the assay on SF-539 CNS; 0.433 µM and 2.26 µM with SW-620 colon; 1.9 µM and 4.82 µM with UACC-257 melanoma.

`CCc1ccc(C2=C/C(=C/c3ccc(Cl)cc3)C(=O)N2CCc2ccc(S(N)(=O)=O)cc2)cc1`: the GI50 is 1780 nM with COLO 205 colon; 2980 nM in the assay with HCT-15 colon; 2810 nM with K-562 leukemia; 3.02 µM in the assay with KM12 colon; 2450 nM in the assay on NCI-H23 lung; 2280 nM with RPMI-8226 leukemia. The GI50 in the assay with SF-268 CNS was 4.63 µM; with SF-539 CNS, 2110 nM; in the assay with SW-620 colon it was 3000 nM; in the assay with UACC-257 melanoma, 3.79 µM. Further, the TGI in the assay on COLO 205 colon was 3.54 µM; in the assay on HCT-15 colon, 12.9 µM; with K-562 leukemia it was > 100 µM; with KM12 colon, 10.1 µM; in the assay with NCI-H23 lung, 7.46 µM; with RPMI-8226 leukemia, 6.14 µM. Also, the TGI is 25.9 µM with SF-268 CNS, 4.12 µM in the assay on SF-539 CNS, 11.8 µM in the assay on SW-620 colon and 15.3 µM in the assay on UACC-257 melanoma.

For `CCc1ccccc1NC(=O)/C(CC(=O)c1c(C)n([O-])c2ccccc2[n+]1=O)=N\NS(=O)(=O)c1ccc(C)cc1`, the TGI is > 100 µM in the assay on COLO 205 colon; > 100 µM in the assay on HCT-15 colon; > 100 µM in the assay with K-562 leukemia; > 100 µM in the assay on KM12 colon; > 100 µM in the assay on NCI-H23 lung; 40 µM in the assay on RPMI-8226 leukemia. The TGI in the assay with SF-268 CNS is > 100 µM; with SF-539 CNS, > 100 µM; with SW-620 colon, > 100 µM; in the assay with UACC-257 melanoma, 82.1 µM.

As for `C/C(CC(=O)CCCC(=O)Nc1ccc(Cl)cc1Cl)=N/NC(=O)CC#N`, the TGI in the assay on COLO 205 colon, in the assay with HCT-15 colon, in the assay on K-562 leukemia, in the assay on KM12 colon, in the assay with NCI-H23 lung and in the assay with RPMI-8226 leukemia was > 100 µM throughout. Besides, the TGI with SF-268 CNS, in the assay with SF-539 CNS, in the assay with SW-620 colon and with UACC-257 melanoma was > 100 µM each time.

For the molecule `CN1CCC23c4c5ccc(O)c4OC2C(=NN=C2CCC4(O)C6Cc7ccc(O)c8c7C4(CCN6C)C2O8)CCC3(O)C1C5` (centres undefined), the TGI in the assay with COLO 205 colon, in the assay with HCT-15 colon, in the assay on K-562 leukemia, in the assay with KM12 colon, in the assay with NCI-H23 lung and in the assay with RPMI-8226 leukemia was > 100 µM in each case. Moreover, the TGI with SF-268 CNS, in the assay on SF-539 CNS, in the assay with SW-620 colon and in the assay on UACC-257 melanoma was > 100 µM in each case.

On to `CCOC(=O)[C@H](CSSc1ncnc2cc[nH]c12)NC(=O)[C@@H](C)c1ccc2cc(OC)ccc2c1`, for which the GI50 is 1850 nM in the assay on COLO 205 colon; 1730 nM in the assay on HCT-15 colon; 156 nM in the assay on K-562 leukemia; 1.61 µM in the assay with KM12 colon; 2180 nM with NCI-H23 lung; 282 nM in the assay on RPMI-8226 leukemia. Moreover, the GI50 in the assay with SF-268 CNS was 2.74 µM; with SF-539 CNS, 478 nM; in the assay on SW-620 colon, 1640 nM; in the assay with UACC-257 melanoma, 3.62 µM. In addition, the TGI with COLO 205 colon, in the assay on HCT-15 colon, with K-562 leukemia, with KM12 colon, with NCI-H23 lung and in the assay on RPMI-8226 leukemia was > 100 µM in each case. Moreover, the TGI with SF-268 CNS, in the assay on SF-539 CNS, with SW-620 colon and in the assay with UACC-257 melanoma was > 100 µM throughout.
